Oligonucleotides are written 5' to 3', each unit as a sugar letter and its base; * is a phosphorothioate linkage, no mark a phosphodiester; rarer units and linkages stand in square brackets, end groups in braces. Plain capitals give the bases only. e = 2'-O-(2-methoxyethyl) (MOE); [5mC] = 5-methylcytosine; d = 2'-deoxy (DNA)

For the first data set, the system named is human CD40 mRNA. Nature of the data set: Inhibition of CD40 mRNA levels by oligonucleotides (real-time RT-PCR). Conditions: 2'-MOE gapmers, 18 nucleotides, phosphorothioate throughout; averaged from three experiments. Type of data set: cell-based. Further details: concentration or dose not given beside the values. On the procedure:
When cells reach about 80% confluency, they are treated with oligonucleotide. For cells grown in 96-well plates, wells are washed once with 200 μl Opti-MEM-1 reduced-serum medium (Life Technologies) and then treated with 130 μl of Opti-MEM-1 containing 3.75 μg/ml LIPOFECTIN (Life Technologies) and the desired oligonucleotide at a final concentration of 150 nM. After 4 hours of treatment, the medium was replaced with fresh medium. Cells were harvested 16 hours after oligonucleotide treatment.
Poly(A)+ mRNA was isolated according to Miura et al. (Clin. Chem., 1996, 42, 1758). Briefly, for cells grown on 96-well plates, growth medium was removed from the cells and each well was washed with 200 ul cold PBS. 60 ul lysis buffer (10 mM Tris-HCl, pH 7.6, 1 mM EDTA, 0.5 M NaCl, 0.5% NP-40, 20 mM vanadyl-ribonucleoside complex) was added to each well, the plate was gently agitated and then incubated at room temperature for five minutes. 55 ul of lysate was transferred to Oligo d(T) coated 96 well plates (AGCT Inc., Irvine, Calif.). Plates were incubated for 60 minutes at room temperature, washed 3 times with 200 ul of wash buffer (10 mM Tris-HCl pH 7.6, 1 mM EDTA, 0.3 M NaCl). After the final wash, the plate was blotted on paper towels to remove excess wash buffer and then air-dried for 5 minutes. 60 ul of elution buffer (5 mM Tris-HCl pH 7.6), preheated to 70° C. was added to each well, the plate was incubated on a 90° hot plate for 5 minutes, and the eluate then transferred to a fresh 96 well plate. Cells grown on 100 mm or other standard plates may be treated similarly, using appropriate volumes of all solutions.
Quantitation of CD40 mRNA levels was determined by real-time PCR (RT-PCR) using the ABI PRISM 7700 Sequence Detection System (PE-Applied Biosystems, Foster City, Calif.) according to manufacturer's instructions. This is a closed-tube, non-gel-based, fluorescence detection system which allows high-throughput quantitation of polymerase chain reaction (PCR) products in real-time.
As opposed to standard PCR, in which amplification products are quantitated after the PCR is completed, products in RT-PCR are quantitated as they accumulate. This is accomplished by including in the PCR reaction an oligonucleotide probe that anneals specifically between the forward and reverse PCR primers, and contains two fluorescent dyes. A reporter dye (e.g., JOE or FAM, PE-Applied Biosystems, Foster City, Calif.) is attached to the 5′ end of the probe and a quencher dye (e.g., TAMRA, PE-Applied Biosystems, Foster City, Calif.) is attached to the 3′ end of the probe. When the probe and dyes are intact, reporter dye emission is quenched by the proximity of the 3′ quencher dye. During amplification, annealing of the probe to the target sequence creates a substrate that can be cleaved by the 5′-exonuclease activity of Taq polymerase.
With each cycle, additional reporter dye molecules are cleaved from their respective probes, and the fluorescence intensity is monitored at regular (six-second) intervals by laser optics built into the ABI PRISM 7700 Sequence Detection System. In each assay, a series of parallel reactions containing serial dilutions of mRNA from untreated control samples generates a standard curve that is used to quantitate the percent inhibition after antisense oligonucleotide treatment of test samples.
RT-PCR reagents were obtained from PE-Applied Biosystems, Foster City, Calif. RT-PCR reactions were carried out by adding 25 ul PCR cocktail (1× Taqman buffer A, 5.5 mM MgCl2, 300 uM each of dATP, dCTP and dGTP, 600 uM of dUTP, 100 nM each of forward primer, reverse primer, and probe, 20 U RNAse inhibitor, 1.25 units AmpliTaq Gold, and 12.5 U MuLV reverse transcriptase) to 96 well plates containing 25 ul poly(A) mRNA solution. […]
For orientation: In qPCR the cycle at which signal appears reflects the starting amount.
On to “19211 (DNA e[5mC]*e[5mC]*eA*eG*dG*dC*dG*dG*dC*dA*dG*dG*dA*dC*e[5mC]*eA*e[5mC]*eT; antisense) [compound 19211]”, for which the “% Inhibition (Inhibition of CD40 mRNA Levels by Chimeric Phosphorothioate Oligonucleotides)” value (“% Inhibition” below) came out at 75.71%.

Take “19212 (DNA eG*eA*e[5mC]*e[5mC]*dA*dG*dG*dC*dG*dG*dC*dA*dG*dG*eA*e[5mC]*e[5mC]*eA; antisense) [compound 19212]”: the “% Inhibition” value came out at 77.23%.

“19213 (DNA eA*eG*eG*eT*dG*dA*dG*dA*dC*dC*dA*dG*dG*dC*eG*eG*e[5mC]*eA; antisense) [compound 19213]”: the “% Inhibition” value was 80.82%.

As to “19214 (DNA e[5mC]*eA*eG*eA*dG*dG*dC*dA*dG*dA*dC*dG*dA*dA*e[5mC]*e[5mC]*eA*eT; antisense) [compound 19214]”, the “% Inhibition” value came out at 23.68%.

Regarding “19215 (DNA eG*e[5mC]*eA*eG*dA*dG*dG*dC*dA*dG*dA*dC*dG*dA*eA*e[5mC]*e[5mC]*eA; antisense) [compound 19215]”, the “% Inhibition” value is reported as 45.97%.

As to “19216 (DNA eG*e[5mC]*eA*eA*dG*dC*dA*dG*dC*dC*dC*dC*dA*dG*eA*eG*eG*eA; antisense) [compound 19216]”, the “% Inhibition” value turned out to be 65.80%.

For the substance “19217 (DNA eG*eG*eT*e[5mC]*dA*dG*dC*dA*dA*dG*dC*dA*dG*dC*e[5mC]*e[5mC]*e[5mC]*eA; antisense) [compound 19217]”, the “% Inhibition” value worked out at 74.73%.

On to “19218 (DNA eG*eA*e[5mC]*eA*dG*dC*dG*dG*dT*dC*dA*dG*dC*dA*eA*eG*e[5mC]*eA; antisense) [compound 19218]”, for which the “% Inhibition” value is 67.21%.

For “19219 (DNA eG*eA*eT*eG*dG*dA*dC*dA*dG*dC*dG*dG*dT*dC*eA*eG*e[5mC]*eA; antisense) [compound 19219]”, the “% Inhibition” value came to 65.14%.

Regarding “19220 (DNA eT*e[5mC]*eT*eG*dG*dA*dT*dG*dG*dA*dC*dA*dG*dC*eG*eG*eT*e[5mC]; antisense) [compound 19220]”, the “% Inhibition” value is on record as 78.71%.

Consider “19221 (antisense eG*eG*eT*eG*dG*dT*dT*dC*dT*dG*dG*dA*dT*dG*eG*eA*e[5mC]*eA) [compound 19221]”, for which the “% Inhibition” value came to 81.33%.

For the substance “19222 (antisense eG*eT*eG*eG*dG*dT*dG*dG*dT*dT*dC*dT*dG*dG*eA*eT*eG*eG) [compound 19222]”, the “% Inhibition” value came to 57.79%.

As for “19223 (antisense eG*e[5mC]*eA*eG*dT*dG*dG*dG*dT*dG*dG*dT*dT*dC*eT*eG*eG*eA) [compound 19223]”, the “% Inhibition” value is 73.70%.

For “19224 (antisense e[5mC]*eA*e[5mC]*eA*dA*dA*dG*dA*dA*dC*dA*dG*dC*dA*e[5mC]*eT*eG*eA) [compound 19224]”, the “% Inhibition” value is reported as 40.25%.

In the case of “19225 (antisense e[5mC]*eT*eG*eG*dC*dA*dC*dA*dA*dA*dG*dA*dA*dC*eA*eG*e[5mC]*eA) [compound 19225]”, the “% Inhibition” value is 60.11%.

Regarding “19226 (antisense eT*e[5mC]*e[5mC]*eT*dG*dG*dC*dT*dG*dG*dC*dA*dC*dA*eA*eA*eG*eA) [compound 19226]”, the “% Inhibition” value amounted to 10.18%.

For the substance “19227 (antisense e[5mC]*eT*eG*eT*dC*dC*dT*dG*dG*dC*dT*dG*dG*dC*eA*e[5mC]*eA*eA) [compound 19227]”, the “% Inhibition” value was 24.37%.

As to “19228 (antisense e[5mC]*eT*e[5mC]*eA*dC*dC*dA*dG*dT*dT*dT*dC*dT*dG*eT*e[5mC]*e[5mC]*eT) [compound 19228]”, the “% Inhibition” value is on record as 22.30%.

Regarding “19229 (antisense eT*e[5mC]*eA*e[5mC]*dT*dC*dA*dC*dC*dA*dG*dT*dT*dT*e[5mC]*eT*eG*eT) [compound 19229]”, the “% Inhibition” value is given as 40.64%.

“19230 (antisense eG*eT*eG*e[5mC]*dA*dG*dT*dC*dA*dC*dT*dC*dA*dC*e[5mC]*eA*eG*eT) [compound 19230]”: the “% Inhibition” value is on record as 82.04%.

Regarding “19231 (antisense eA*e[5mC]*eT*e[5mC]*dT*dG*dT*dG*dC*dA*dG*dT*dC*dA*e[5mC]*eT*e[5mC]*eA) [compound 19231]”, the “% Inhibition” value worked out at 37.59%.

“19232 (antisense e[5mC]*eA*eG*eT*dG*dA*dA*dC*dT*dC*dT*dG*dT*dG*e[5mC]*eA*eG*eT) [compound 19232]”: the “% Inhibition” value was 40.26%.

Staying with this data set, now noted: oligodeoxynucleotides with phosphorothioate backbones throughout; averages from three experiments.
“18695 (DNA dG*dG*dA*dG*dC*dC*dA*dG*dG*dA*dA*dG*dA*dT*dC*dG*dT*dC; antisense) [compound 18695]”: the “% INHIB. (Inhibition of CD40 mRNA Levels by Phosphorothioate Oligodeoxynucleotides)” value amounted to 0.00%.

“18696 (DNA dT*dG*dG*dA*dG*dC*dC*dA*dG*dG*dA*dA*dG*dA*dT*dC*dG*dT; antisense) [compound 18696]”: the “% INHIB. (Inhibition of CD40 mRNA Levels by Phosphorothioate Oligodeoxynucleotides)” value is 0.00%.

Turning to “18697 (DNA dT*dG*dG*dA*dG*dC*dA*dG*dC*dA*dG*dT*dG*dT*dT*dG*dG*dA; antisense) [compound 18697]”, the “% INHIB. (Inhibition of CD40 mRNA Levels by Phosphorothioate Oligodeoxynucleotides)” value was determined as 0.00%.

As to “18698 (DNA dG*dT*dA*dA*dA*dG*dT*dC*dT*dC*dC*dT*dG*dC*dA*dC*dT*dG; antisense) [compound 18698]”, the “% INHIB. (Inhibition of CD40 mRNA Levels by Phosphorothioate Oligodeoxynucleotides)” value turned out to be 0.00%.

For the substance “18699 (DNA dT*dG*dG*dC*dA*dT*dC*dC*dA*dT*dG*dT*dA*dA*dA*dG*dT*dC; antisense) [compound 18699]”, the “% INHIB. (Inhibition of CD40 mRNA Levels by Phosphorothioate Oligodeoxynucleotides)” value was found to be 0.00%.

Consider “18700 (DNA dC*dG*dG*dT*dT*dG*dG*dC*dA*dT*dC*dC*dA*dT*dG*dT*dA*dA; antisense) [compound 18700]”, for which the “% INHIB. (Inhibition of CD40 mRNA Levels by Phosphorothioate Oligodeoxynucleotides)” value worked out at 0.00%.

As for “18701 (DNA dC*dT*dC*dT*dT*dT*dG*dC*dC*dA*dT*dC*dC*dT*dC*dC*dT*dG; antisense) [compound 18701]”, the “% INHIB. (Inhibition of CD40 mRNA Levels by Phosphorothioate Oligodeoxynucleotides)” value turned out to be 4.38%.

Regarding “18702 (DNA dC*dT*dG*dT*dC*dT*dC*dT*dC*dC*dT*dG*dC*dA*dC*dT*dG*dA; antisense) [compound 18702]”, the “% INHIB. (Inhibition of CD40 mRNA Levels by Phosphorothioate Oligodeoxynucleotides)” value came to 0.00%.

Take “18703 (DNA dG*dG*dT*dG*dC*dA*dG*dC*dC*dT*dC*dA*dC*dT*dG*dT*dC*dT; antisense) [compound 18703]”: the “% INHIB. (Inhibition of CD40 mRNA Levels by Phosphorothioate Oligodeoxynucleotides)” value is listed as 0.00%.

“18704 (DNA dA*dA*dC*dT*dG*dC*dC*dT*dG*dT*dT*dT*dG*dC*dC*dC*dA*dC; antisense) [compound 18704]”: the “% INHIB. (Inhibition of CD40 mRNA Levels by Phosphorothioate Oligodeoxynucleotides)” value came out at 33.89%.

Consider “18705 (DNA dC*dT*dT*dC*dT*dG*dC*dC*dT*dG*dC*dA*dC*dC*dC*dC*dT*dG; antisense) [compound 18705]”, for which the “% INHIB. (Inhibition of CD40 mRNA Levels by Phosphorothioate Oligodeoxynucleotides)” value is 0.00%.

Consider “18706 (DNA dA*dC*dT*dG*dA*dC*dT*dG*dG*dG*dC*dA*dT*dA*dG*dC*dT*dC; antisense) [compound 18706]”, for which the “% INHIB. (Inhibition of CD40 mRNA Levels by Phosphorothioate Oligodeoxynucleotides)” value worked out at 0.00%.

The values above are taken from patent US20050142581A1, “Microrna as ligands and target molecules” (priority 2003, published 2005).
